Measured values from US10214542B2, “Modified macrocyclic compounds” (BAYER PHARMA AKTIENGESELLSCHAFT, priority 2015, dated 2019).

Key:
Caco-2 cells = test: Proliferation assay, crystal violet (Method 3); assay type: cell-based; conditions: Homo sapiens, 96 h; Caco-2, 4 days; read-out: Inhibition of Caco-2 cell proliferation IC50
Method: (§1) Cultivated tumour cells (HeLa, human cervical tumour cells, ATCC CCL-2; NCI-H460, human non-small cell lung carcinoma cells, ATCC HTB-177; DU 145, hormone-independent human prostate carcinoma cells, ATCC HTB-81; HeLa-MaTu-ADR, multidrug-resistant human cervical carcinoma cells, EPO-GmbH Berlin; Caco-2, human colorectal carcinoma cells, ATCC HTB-37; B16F10, mouse melanoma cells, ATCC CRL-6475) were plated at a density of 5,000 cells/well (DU145, HeLa-MaTu-ADR), 3,000 cells/well (NCI-H460, HeLa), 1,500 cells/well (Caco-2), or 1,000 cells/well (B16F10) in a 96-well multititer plate in 200 μL of their respective growth medium supplemented 10% fetal calf serum. After 24 hours, the cells of one plate (zero-point plate) were stained with crystal violet (see below), while the medium of the other plates was supplemented with the test substances in various concentrations (0 μM, as well as in the range of 0.0001-10 μM; the final concentration of the solvent dimethyl sulfoxide was adjusted to 0.1%) using a Hewlett-Packard HP D300 Digital Dispenser. The cells were incubated for 4 days in the presence of test substances. Cell proliferation was determined by staining the cells with crystal violet: the cells were fixed by adding 20 μl/measuring point of an 11% glutaric aldehyde solution for 15 minutes at room temperature. After three washing cycles of the fixed cells with water, the plates were dried at room temperature. The cells were stained by adding 100 μl/measuring point of a 0.1% crystal violet solution (pH 3.0). After three washing cycles of the stained cells with water, the plates were dried at room temperature. The dye was dissolved by adding 100 μl/measuring point of a 10% acetic acid solution. The extinction was determined by photometry at a wavelength of 595 nm. The change of cell number, in percent, was calculated by normalization of the measured values to the extinction values of the zero-point plate (=0%) and the extinction of the untreated (0 μm) cells (=100%). The IC50 values (inhibitory concentration at 50% of maximal effect) were determined by means of a 4 parameter fit.

NCI-H460 cells = test: Proliferation assay, crystal violet (Method 3); assay type: cell-based; conditions: Homo sapiens, 96 h; NCI-H460, 4 days; read-out: Inhibition of NCI-H460 cell proliferation IC50
Method: as §1

DU145 cells = test: Proliferation assay, crystal violet (Method 3); assay type: cell-based; conditions: Homo sapiens, DU-145, 96 h; DU145, 4 days; read-out: Inhibition of DU145 cell proliferation IC50
Method: as §1

B16F10 cells = test: Proliferation assay, crystal violet (Method 3); assay type: cell-based; conditions: Mus musculus, B16-F10, 96 h; B16F10, 4 days; read-out: Inhibition of B16F10 cell proliferation IC50
Method: as §1

HeLa-MaTu-ADR cells = test: Proliferation assay, crystal violet (Method 3); assay type: cell-based; conditions: Homo sapiens, 96 h, 4 days, read-out: Inhibition of HeLa-MaTu-ADR cell proliferation IC50
Method: as §1

CDK9/CycT1 = molecular target: T1, CDK9/CycT1 (Homo sapiens, UniProt P50750); test: CDK9/CycT1 high ATP kinase assay (TR-FRET, Method 1b); assay type: biochemical; conditions: 2 mM ATP; for IC50: Method 1b; for Selectivity high ATP CDK9 over high ATP CDK2: IC50 (high ATP CDK2)/IC50 (high ATP CDK9): Methods 1b and 2b
T1 construct: Recombinant full-length His-tagged human CDK9 and CycT1; His; purchased Invitrogen PV4131; host or cells: insect cells
T1 sequence (P50750 whole entry): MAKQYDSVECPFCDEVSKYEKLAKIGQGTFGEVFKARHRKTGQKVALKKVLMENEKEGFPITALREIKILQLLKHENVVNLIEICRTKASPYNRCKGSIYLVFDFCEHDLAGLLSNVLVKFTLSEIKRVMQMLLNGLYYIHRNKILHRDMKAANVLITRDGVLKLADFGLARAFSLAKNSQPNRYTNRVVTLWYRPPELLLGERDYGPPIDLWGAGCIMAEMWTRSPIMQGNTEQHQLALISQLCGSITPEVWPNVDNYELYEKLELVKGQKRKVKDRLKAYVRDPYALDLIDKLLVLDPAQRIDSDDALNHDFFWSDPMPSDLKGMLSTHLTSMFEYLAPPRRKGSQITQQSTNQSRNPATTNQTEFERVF
T1 sequence (O60563 whole entry partner): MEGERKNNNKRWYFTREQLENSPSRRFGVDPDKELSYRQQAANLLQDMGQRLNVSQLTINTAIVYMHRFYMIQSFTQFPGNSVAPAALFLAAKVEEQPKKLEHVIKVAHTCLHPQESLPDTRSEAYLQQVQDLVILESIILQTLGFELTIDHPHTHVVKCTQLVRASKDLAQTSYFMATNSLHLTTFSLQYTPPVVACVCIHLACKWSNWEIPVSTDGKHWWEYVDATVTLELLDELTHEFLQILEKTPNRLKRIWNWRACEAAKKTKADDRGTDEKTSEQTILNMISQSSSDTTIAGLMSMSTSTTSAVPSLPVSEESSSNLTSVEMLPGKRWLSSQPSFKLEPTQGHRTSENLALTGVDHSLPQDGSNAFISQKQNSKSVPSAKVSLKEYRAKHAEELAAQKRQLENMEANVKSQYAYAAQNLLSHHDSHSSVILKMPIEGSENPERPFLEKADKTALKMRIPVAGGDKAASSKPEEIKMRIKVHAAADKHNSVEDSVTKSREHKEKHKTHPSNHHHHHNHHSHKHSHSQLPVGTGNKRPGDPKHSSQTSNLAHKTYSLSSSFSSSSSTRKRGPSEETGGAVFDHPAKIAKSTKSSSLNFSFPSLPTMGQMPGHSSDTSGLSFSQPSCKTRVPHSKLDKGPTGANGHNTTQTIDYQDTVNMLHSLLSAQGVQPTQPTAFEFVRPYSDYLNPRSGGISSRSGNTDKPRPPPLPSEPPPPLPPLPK

Row | Compound | IC50 (Caco-2 cells) [nM] | IC50 (NCI-H460 cells) [nM] | IC50 (DU145 cells) [nM] | IC50 (B16F10 cells) [nM] | IC50 (HeLa-MaTu-ADR cells) [nM] | IC50 (CDK9/CycT1) [nM] | Selectivity high ATP CDK9 over high ATP CDK2: IC50 (high ATP CDK2)/IC50 (high ATP CDK9) (CDK9/CycT1)
1 | CC(C)(C)OC(=O)N=S(C)(=O)Cc1cc2nc(c1)Nc1cc(c(F)cn1)-c1ccc(F)cc1OCCCN2 (racemic) [Example 7, (rac)-tert-butyl[{[15,19-difluoro-2,3,4,5-tetrahydro-11H-10,6-(azeno)-16,12-(metheno)-1,5,11,13-benzoxatriazacyclooctadecin-8-yl]methyl}(methyl)oxido-λ^6-sulfanylidene]carbamate] | 33 | 37 | 30 | 44 | 53 | 1.9 | 32.1
2 | CSCc1cc2nc(c1)Nc1cc(c(F)cn1)-c1ccc(F)cc1OCCCN2 [Example 1, 15,19-Difluoro-8-[(methylsulfanyl)methyl]-2,3,4,5-tetrahydro-11H-10,6-(azeno)-12,16-(metheno)-1,5,11,13-benzoxatriazacyclooctadecine] | 36 | 31 | 30 | 51 | 28 | 3.8 | 140
3 | C[S+]([O-])Cc1cc2nc(c1)OCCCCCc1cc(F)ccc1-c1cc(ncc1F)N2 (racemic) [Example 19, (rac)-2,19-difluoro-9-[(methylsulfinyl)methyl]-14,15,16,17-tetrahydro-6H,13H-7,11-(azeno)-5,1-(metheno)-12,4,6-benzoxadiazacyclononadecine] | 944 | 1150 | 942 | 1550 | 888 | 17 | 82.9
4 | CS(=N)(=O)Cc1cc2nc(c1)Nc1cc(c(F)cn1)-c1ccc(F)cc1OCCCCCN2 (racemic) [Example 10, (rac)-17,21-difluoro-10-[(S-methylsulfonimidoyl)methyl]-2,3,4,5,6,7-hexahydro-13H-12,8-(azeno)-14,18-(metheno)-1,7,13,15-benzoxatriazacycloicosine] | 13 | 18 | 11 | 26 | 19 | 1 | 102
5 | CN1CCCCNc2cc(F)ccc2-c2nc(ncc2F)Nc2cc(CS(C)(=N)=O)cc1c2.O=CO (racemic) [Example 17, (rac)-16,20-difluoro-6-methyl-9-[(S-methylsulfonimidoyl)methyl]-1,2,3,4,5,6-hexahydro-12H-17,13-(azeno)-11,7-(metheno)-1,6,12,14-benzotetraazacyclononadecine; salt with formic acid] | 24 | 35 | 30 | 38 | 30 | 2.2 | 283
6 | CS(=N)(=O)Cc1cc2nc(c1)OCCCCCc1cc(F)ccc1-c1cc(ncc1F)N2 (racemic) [Example 20, (rac)-2,19-difluoro-9-[(S-methylsulfonimidoyl)methyl]-14,15,16,17-tetrahydro-6H,13H-7,11-(azeno)-5,1-(metheno)-12,4,6-benzoxadiazacyclononadecine] | 350 | 579 | 347 | 867 | 360 | 5.2 | 177
7 | CS(=N)(=O)Cc1cc2cc(c1)OCCCCNc1cc(F)ccc1-c1nc(ncc1F)N2 (racemic) [Example 16, (rac)-16,20-difluoro-9-[(S-methylsulfonimidoyl)methyl]-2,3,4,5-tetrahydro-1H-17,13-(azeno)-7,11-(metheno)-6,1,12,14-benzoxatriazacyclononadecine] | 12 | 20 | 12 | 18 | 13 | 1.5 | 151
8 | CC(C)(C)OC(=O)N=S(C)(=O)Cc1cc2cc(c1)OCCCCNc1cc(F)ccc1-c1nc(ncc1F)N2 (racemic) [Example 15, (rac)-tert-butyl[{[16,20-difluoro-2,3,4,5-tetrahydro-1H,12H-13,17-(azeno)-11,7-(metheno)-6,1,12,14-benzoxatriazacyclononadecin-9-yl]methyl}(methyl)oxido-λ^6-sulfanylidene]carbamate] | 48 | 64 | 40 | 83 | 63 | 4.7 | 713
